Source: patent US8748618B2, “Inhibitors of inv(16) leukemia” (University of Virginia Patent Foundation, priority 2009, dated 2014)

Tests used:
[1] = target: CBFβ-SMMHC:RD (CBFβ-SMMHC binding to the Runt domain); test: FRET assay, inhibition of CBFβ-SMMHC binding to the Runt domain; details: for IC50 FRET (CBFβ-SMMHC:RD, 20 nM both): 20 nM both proteins
Experimental: FRET assay. […] We fused the green fluorescent protein derivative Cerulean to the N-terminus of the Runt domain and the green fluorescent protein derivative Venus to the N-terminus of CBFβ-SMMHC (as well as to CBFβ (Gorczynski, Grembecka et al. 2007)). The ratio of the emission intensities at 525 nm and 474 nm, measured after excitation at 433 nm, was used as the readout in this assay. The dynamic range for the FRET assay was determined by adding a 30-fold excess of untagged CBFβ-SMMHC (or CBFβ in the case of CBFβ—Runt domain binding) to the assay and the associated change in the FRET ratio was defined as 100% inhibition.
As shown by Shoichet and co-workers (Seidler, McGovern et al. 2003), a primary source of false positives in any screen is micelle formation. […] A substantial loss of activity in the presence of detergent is a hallmark of inhibition by micelle formation and such compounds are thus identified as false positives. In addition, we are also incubating compound with protein and checking by mass spectroscopy to ensure that positive hits are not acting by covalent addition to either of the proteins.

[2] = target: CBFβ (Homo sapiens (Human), UniProt Q13951); test: NMR chemical shift perturbation with CBFβ; type: binding; details: for NMR with CBFβ + 250 uM compound, CSP G 112: residue G 112; for NMR with CBFβ + 250 uM compound, CSP K 98: residue K 98; for Precipitation in the NMR sample: 250 uM compound with CBFβ
Sequence of CBFβ (Q13951 1-141, species assumed): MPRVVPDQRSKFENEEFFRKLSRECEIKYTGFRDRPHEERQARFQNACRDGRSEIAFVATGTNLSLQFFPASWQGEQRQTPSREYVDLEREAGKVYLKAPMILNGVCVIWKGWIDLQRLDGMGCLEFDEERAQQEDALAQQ
Excerpt: Validation of binding of a small molecule inhibitor to its protein target is an essential step in developing potent inhibitors. This can be readily achieved using either NMR spectroscopy or X-ray crystallography. In the case of X-ray crystallography, this is achieved by co-crystallization of the protein with the ligand and determination of the structure. In the case of NMR spectroscopy, the structure of a compound-protein complex can also be determined. In addition, chemical shift perturbations of the protein NMR spectrum (typically 2D ^15N—^1H HSQC or ^13C—^1H HSQC) in the presence of compounds can both confirm binding to the target and localize the binding site on a protein (Pellecchia, Sem et al. 2002; Salvatella and Giralt 2003). The latter method is a quick and efficient method to confirm binding to the protein and to determine the binding site when appropriate labeled samples are available and the resonance assignments are known. Such data can also be used to dock the small molecule to the protein. Because the structure of CBFβ has been solved by NMR (Huang, Peng et al. 1999), resonance assignments are available and we have employed this approach as an additional screen to ensure the validity of the inhibitors we are developing and to determine the binding site (see below).

[3] = test system: ME-1 cells; test: Apoptosis by flow cytometry, Annexin V/PI positivity; type: cell-based, human; details: FIG. 4C
Excerpt: (§1) We have tested several of the compounds we have synthesized for their effects on ME-1 cells, a leukemia cell line harboring the inv(16) (Yanagisawa, Horiuchi et al. 1991). […] AI-4-57 has also been tested against the Kasumi-1, Jurkat, and RS4; 11 leukemia cell lines (FIG. 4.B). […] We have also examined effects on apoptosis using flow cytometry to measure Annexin V/PI (propidium iodide) positivity. […] The selectivity for specific cell lines and the correlation of activity in the FRET assay with effects on inv(16) cells all support the hypothesis that the compounds are hitting the desired target.

[4] = test system: ME-1 cells; test: MTT viability assay, growth of ME-1 cells; type: cell-based, human; details: MTT, FIG. 4A
Excerpt: as §1
The dimer with a 7 atom linker (AI-4-62) has been tested for effects on the growth of the ME-1 cell line (see FIG. 7), a leukemia cell line with the inv(16).

[5] = test system: NCI 60 cell lines; details: for 79% of the cell lines; cited from earlier work
[6] = ip injection; NCI Developmental Therapeutics website; cited from earlier work

Q: What does the source list for c1ccc(-c2nc3cc(N4CCCCC4)ccc3[nH]2)nc1 [AI-10-82]?
A: IC50 FRET (CBFβ-SMMHC:RD, 20 nM both) ([1]; Table 1 monomers): Interference with assay; NMR with CBFβ + 250 uM compound, CSP G 112 ([2]; 250 uM compound): 0.032 ppm; NMR with CBFβ + 250 uM compound, CSP K 98 ([2]; 250 uM compound): 0.016 ppm

Q: Which “IC50 FRET (CBFβ-SMMHC:RD, 20 nM both)” value ([1]; Table 1 monomers) does the source give for c1ccc(-c2nc3cc(N4CCCC4)ccc3[nH]2)nc1 [AI-10-83] here?
A: Interference with assay

Q: And the “NMR with CBFβ + 250 uM compound, CSP G 112” value ([2]; 250 uM compound)?
A: 0.087 ppm

Q: What about the “NMR with CBFβ + 250 uM compound, CSP K 98” value (shortened to “NMR … CSP K 98”) ([2]; 250 uM compound) of the same compound?
A: 0.039 ppm

Q: And the “NMR with CBFβ + 250 uM compound, CSP L 97” value ([2]; 250 uM compound, residue L 97)?
A: 0.034 ppm

Q: With c1ccc(-c2nc3cc(-n4ccnc4)ccc3[nH]2)nc1 [AI-10-88] as the compound, how does the “NMR with CBFβ + 250 uM compound, CSP G 112/K 98 (in words)” value (from here on “NMR … (in words)”) ([2]; 250 uM compound) read?
A: No CSP

Q: Which “NMR … (in words)” value ([2]; 250 uM compound) does the source give for FC(F)(F)Oc1cc(-c2cccnc2)c2[nH]c(-c3ccccn3)nc2c1 [AI-10-96] here?
A: No CSP

Q: Which “IC50 FRET (CBFβ-SMMHC:RD, 20 nM both)” value ([1]; Table 1 monomers) does the source give for FC(F)(F)Oc1cc2nc(-c3ccccn3)[nH]c2cc1N1CCCC1 [AI-10-97] here?
A: Interference with assay

Q: And the “NMR with CBFβ + 250 uM compound, CSP G 112” value ([2]; 250 uM compound)?
A: 0.012 ppm

Q: And the “NMR … CSP K 98” value ([2]; 250 uM compound)?
A: 0.006 ppm

Q: For c1cc(-c2nc3cc(N4CCCC4)ccc3[nH]2)ncc1OCCOCCOc1ccc(-c2nc3cc(N4CCCC4)ccc3[nH]2)nc1 [AI-10-98], which “IC50 FRET (CBFβ-SMMHC:RD, 20 nM both)” value ([1]; Table 2 dimers) is on record?
A: Interference with assay

Q: With COc1ccc(-c2nc3cc(N4CCCC4)ccc3[nH]2)nc1 [AI-10-101] as the compound, how does the “IC50 FRET (CBFβ-SMMHC:RD, 20 nM both)” value ([1]; Table 1 monomers) read?
A: Interference with assay

Q: Which “NMR … (in words)” value ([2]; 250 uM compound) does the source give for Cc1ccc2[nH]c(-c3ccccn3)nc2c1C [LD-1-23] here?
A: No CSP

Q: And the “Precipitation in the NMR sample” value [2]?
A: some precipitation

Q: Which “Apoptosis (AnnexinV/PI)” value ([3]; 40 μM) does the source give for CCOc1ccc2[nH]c(-c3ccccn3)nc2c1 [LD-1-29] here?
A: substantial apoptosis

Q: And the “Percentage of apoptotic cells (AnnexinV/PI)” value ([3]; 3 different concentrations)?
A: clear dose-dependent increase in the percentage of apoptotic cells

Q: And the “NMR with CBFβ + 250 uM compound, CSP G 112” value ([2]; 250 uM compound)?
A: 0.026 ppm

Q: What about the “NMR … CSP K 98” value ([2]; 250 uM compound) of the same compound?
A: no change

Q: What about the “Growth of ME-1 cells” value [4] of the same compound?
A: effective inhibition of growth

Q: For Fc1ccc2[nH]c(-c3ccccn3)nc2c1 [LD-1-31], which “NMR … (in words)” value ([2]; 250 uM compound) is on record?
A: No CSP

Q: And the “Precipitation in the NMR sample” value [2]?
A: Strong precipitation

Q: For COc1c(F)cc2[nH]c(-c3ccccn3)nc2c1F [LD-1-39], which “NMR … (in words)” value ([2]; 250 uM compound) is on record?
A: No CSP

Q: For COc1ccc(-c2nc3cc(OC)ccc3[nH]2)c(O)c1 [LD-1-73], which Δ110 [1] is on record?
A: Δ110 = 30%

Q: For CN(C)c1ccc2[nH]c(-c3ccccn3)nc2c1 [LD-2-63], which “IC50 FRET (CBFβ-SMMHC:RD, 20 nM both)” value ([1]; Table 1 monomers) is on record?
A: Interference with assay

Q: What about the “NMR with CBFβ + 250 uM compound, CSP G 112” value ([2]; 250 uM compound) of the same compound?
A: 0.037 ppm

Q: And the “NMR … CSP K 98” value ([2]; 250 uM compound)?
A: 0.023 ppm

Q: For COc1ccc2[nH]c(-c3cccc(C)n3)nc2c1 [LD-2-89], which Δ333 [1] is on record?
A: Δ333 = 17%

Q: Which “NMR … (in words)” value ([2]; 250 uM compound) does the source give for COc1ccnc(-c2nc3cc(OC)ccc3[nH]2)c1 [LD-2-101] here?
A: No CSP

Q: With COc1ccc2[nH]c(-c3ccccn3)nc2c1 [NCI-320656, reference compound] as the compound, how does the GI50 [5] read?
A: ≥ 100 µM

Q: And the “NMR with CBFβ + 250 uM compound, CSP G 112” value ([2]; 250 uM compound)?
A: 0.039 ppm

Q: And the “NMR … CSP K 98” value ([2]; 250 uM compound)?
A: 0.026 ppm

Q: And the Tolerated by mice [6]?
A: up to 200 mg/kg/day
